{"source": "patent US12364706B2", "about": "“Modified aminoglycoside compounds and uses thereof in disabling bacterial ribosome” (Technion Research & Development Foundation Limited, priority 2018, dated 2025)", "key": {"[1]": {"test_system": "WT and aminoglycoside-resistant strains, including Gram-negative and Gram-positive bacteria", "experiment": "Antibacterial activity (MIC) against WT and aminoglycoside-resistant strains", "assay_type": "cell-based", "procedure": "(§1) Comparative antibacterial activities were determined by measuring the MIC values by using the double-microdilution method according to the National Committee for Clinical Laboratory Standards (NCCLS).\n(§2) All the experiments were performed in triplicate, and analogous results were obtained in three different experiments.\nThe minimal inhibitory concentration (MIC) values of the newly designed exemplary Compounds 1-10 were determined against wild-type (WT) Gram-negative and Gram-positive bacteria.\nThe bacterial strains that were included in these tests were as follows:\nTwo wild-type (WT) E. coli strains (R477-100 and 25922) as representatives of Gram-negative bacteria with unknown resistance to aminoglycosides [V. Pokrovskaya, V. Belakhov, M. Hainrichson, S. Yaron, T. Baasov, J. Med. Chem. 2009, 52, 2243-2254] and two WT Staphylococcus epidermidis and Bacillus subtilis strains as representatives of Gram-positive bacteria (the clinically used aminoglycosides have significant antibacterial activity against these strains) [J. Kondo, M. Hainrichson, I. Nudelman, D. Shallom-Shezifi, C. M. C. M. Barbieri, D. S. D. S. Pilch, E. Westhof, T. Baasov, ChemBioChem 2007, 8, 1700-1709]. […]"}, "[2]": {"test_system": "Gram-positive pathogenic MRSA strains", "experiment": "Antibacterial activity (MIC, double-microdilution) against MRSA strains", "assay_type": "cell-based", "conditions": "relative to NeoB", "procedure": "as §1, §2\nThe resistant strains included MRSA, a Gram-positive bacterium, the treatment of which represents a great challenge in the clinic; MRSA 252, which is known for its high resistance to aminoglycosides [M. T. G. Holden, E. J. Feil, J. A. Lindsay, S. J. Peacock, N. P. J. Day, M. C. Enright, T. J. Foster, C. E. Moore, L. Hurst, R. Atkin, et al., Proc. Natl. Acad. Sci. USA 2004, 101, 9786-9791]; and MRSA CI 15877, which is resistant to natural aminoglycosides [G. Kaneti, H. Sarig, I. Marjieh, Z. Fadia, A. Mor, FASEB J. 2013, 27, 4834-4843]."}, "[3]": {"test_system": "E. coli S30 extract for circular DNA with the pBESTluc plasmid", "experiment": "Prokaryotic in vitro translation inhibition, coupled transcription/translation assay", "assay_type": "biochemical", "conditions": "for IC50: prokaryotic system, 37° C., 60 minutes, read-out: IC50 values, protein translation inhibition (half-maximum inhibition levels); for inhibitory potency of protein translation compared with NeoB: relative to NeoB", "procedure": "Prokaryotic in vitro translation inhibition by the different standard and synthetic aminoglycosides was quantified in coupled transcription/translation assays by use of E. coli S30 extract for circular DNA with the pBESTluc plasmid (Promega), according to the manufacturer's protocol.\nTranslation reactions ([…]) containing variable concentrations of the tested aminoglycoside were incubated at 37° C. for 60 minutes, cooled on ice for 5 minutes, and diluted with a dilution reagent [Tris-phosphate buffer (25 mm, pH 7.8), dithiothreitol (DTT, 2 mm), 1,2-diaminocyclohexanetetraacetate (2 mm), glycerol (10%), triton X100 (1%), and bovine serum albumin (BSA, 1 mg/mL] into 96-well plates.\nThe luminescence was measured immediately after the addition of Luciferase Assay Reagent (Promega) ([…]), and light emission was recorded with a Victor3 Plate Reader (PerkinElmer).\nThe concentration of half-maximal inhibition (IC^50) was obtained from fitting concentration-response curves to the data of at least three independent experiments by using Grafit 5 software."}, "E. coli ribosomes": {"test_system": "E. coli ribosomes", "experiment": "rRNA cleavage experiments with full-size E. coli ribosomes (gel electrophoresis)", "assay_type": "biochemical"}, "[4]": {"test_system": "adenylyl(3′-5′)-adenosine (ApA)", "conditions": "relative to 1,3-propanediamine; cited from earlier work"}, "[5]": {"test_system": "Geobacillus T1 harboring the resistance to kanamycin", "experiment": "Antibacterial activity against kanamycin-resistant Geobacillus T1", "assay_type": "cell-based", "procedure": "as §1, §2"}}, "data": [{"compound": "4′-O-(2-aminoethylamino)ethyl-paromamine [Compound 1]", "values": [{"measurement": "antibacterial activity", "setting": "[1]", "value": "substantially lower than that of the other compounds tested"}]}, {"compound": "4′-O-(2-aminoethylamino)ethyl-neomycin [Compound 2]", "values": [{"measurement": "MIC values, times lower than that of NeoB", "setting": "[2]", "value": 64, "unit": "times"}]}, {"compound": "NCCNCC(=O)N[C@H]1[C@H](O)[C@@H](N)[C@@H](O[C@H]2[C@H](O[C@@H]3O[C@H](CO)[C@@H](O[C@H]4O[C@@H](CN)[C@@H](O)[C@H](O)[C@H]4N)[C@H]3O)[C@@H](O)[C@H](N)C[C@@H]2N)O[C@@H]1CN", "note": "[Compound 6, 4′-(2-(aminoethylamino)acetamido)-4′-deoxy-neomycin]", "values": [{"measurement": "IC50", "setting": "[3]", "value": 6, "unit": "nM"}, {"measurement": "inhibitory potency of protein translation compared with NeoB", "setting": "[3]", "value": "two-fold higher than that of NeoB"}]}, {"compound": "NCCNCCNCC(=O)NC[C@H]1O[C@H](O[C@H]2[C@H](O[C@@H]3O[C@H](CO)[C@@H](O[C@H]4O[C@@H](CN)[C@@H](O)[C@H](O)[C@H]4N)[C@H]3O)[C@@H](O)[C@H](N)C[C@@H]2N)[C@H](N)[C@@H](O)[C@@H]1N", "note": "[Compound 10, 4′-amino-6′-[2-(2-(2-aminoethylamino)ethylamino)acetamido]-4′-deoxy-neomycin]", "values": [{"measurement": "IC50", "setting": "[3]", "value": 6, "unit": "nM"}, {"measurement": "inhibitory potency of protein translation compared with NeoB", "setting": "[3]", "value": "two-fold higher than that of NeoB"}]}, {"compound": "NCCNCCNCC(=O)NC1C(CN)OC(OC2C(N)CC(N)C(O)C2OC2OC(CO)C(OC3OC(CN)C(O)C(O)C3N)C2O)C(N)C1O", "note": "(stereo not drawn) [Compound 8, 4′-[2-(2-(2-aminoethylamino)ethylamino)acetamido]-4′-deoxy-neomycin]", "values": [{"measurement": "MIC values, times lower than that of NeoB", "setting": "[2]", "value": 64, "unit": "times"}]}, {"compound": "NCCN", "note": "[ethylenediamine]", "values": [{"measurement": "cleavage of rRNA in full ribosomes", "setting": "E. coli ribosomes; pH 7", "value": "did not cleave the full ribosome"}]}, {"compound": "CNCCNCCO[C@H]1[C@H](O)[C@@H](N)[C@@H](O[C@H]2[C@H](O[C@@H]3O[C@H](CO)[C@@H](O[C@H]4O[C@@H](CN)[C@@H](O)[C@H](O)[C@H]4N)[C@H]3O)[C@@H](O)[C@H](N)C[C@@H]2N)O[C@@H]1CN", "note": "[Compound 3, 4′-O-(2-(methylamino)ethylamino)ethyl-neomycin]", "values": [{"measurement": "cleavage of rRNA in full ribosomes", "setting": "E. coli ribosomes; pH 7", "value": "did not show any signs of the cleaved product"}]}, {"compound": "NC[C@@H]1O[C@H](O[C@H]2[C@@H](O)[C@H](O[C@@H]3[C@@H](O)[C@H](N)C[C@H](N)[C@H]3O[C@H]3O[C@H](CN)[C@@H](O)[C@H](O)[C@H]3N)O[C@@H]2CO)[C@H](N)[C@@H](O)[C@@H]1O", "note": "[NeoB, Neomycin B]", "values": [{"measurement": "IC50", "setting": "[3]", "value": 10, "unit": "nM"}, {"measurement": "hydrolysis of ApA, faster than 1,3-propanediamine", "setting": "[4]", "value": 3, "unit": "fold"}, {"measurement": "cleavage of rRNA in full ribosomes", "setting": "E. coli ribosomes; concentrations up to 400 mM, 24 hours, 37° C., pH 7.0", "value": "did not show any signs of the cleaved product"}, {"measurement": "antibacterial activity", "setting": "[5]", "value": "almost lost its activity"}]}, {"compound": "NCCNCC(=O)NC[C@H]1O[C@H](O[C@H]2[C@H](O[C@@H]3O[C@H](CO)[C@@H](O[C@H]4O[C@@H](CN)[C@@H](O)[C@H](O)[C@H]4N)[C@H]3O)[C@@H](O)[C@H](N)C[C@@H]2N)[C@H](N)[C@@H](O)[C@@H]1N", "note": "[Compound 9, 4′-amino-6′-(2-(aminoethylamino)acetamido)-4′-deoxy-neomycin]", "values": [{"measurement": "IC50", "setting": "[3]", "value": 5, "unit": "nM"}, {"measurement": "inhibitory potency of protein translation compared with NeoB", "setting": "[3]", "value": "two-fold higher than that of NeoB"}]}]}
